This note sets out measurements from ChEMBL document CHEMBL4052797, “N-alkyl-[1,1'-biphenyl]-2-sulfonamide derivatives as novel broad spectrum anti-epileptic drugs with efficacy equivalent to that of sodium valproate” (2017).

The source made the active and inactive calls.

Experiment [1] relates to Mus musculus. The experiment in a line: Anticonvulsant activity in maximal electroshock induced seizure mouse model assessed as reduction in convulsions at 100 mg/kg, po. The class given is functional, organism-based.
The test system of experiment [2] is Mus musculus. The experiment in a line: Anticonvulsant activity in subcutaneous pentylenetetrazole-induced seizure mouse model assessed as reduction in convulsions at 100 mg/kg, po. It counts as functional, organism-based.
Experiment [3] has as its system Mus musculus. The experiment in a line: Neurotoxicity in po dosed mouse by rotarod test. The class given is functional. In general terms: In the rotarod test animals must keep their balance on a rotating rod.
Experiment [4] relates to Mus musculus. Put plainly: Anticonvulsant activity in po dosed 6-Hz induced seizure mouse model. It counts as functional.
The subject of experiment [5] is Rattus norvegicus. Put plainly: Anticonvulsant activity in amygdala kindling rat model assessed as change in after discharge duration at 600 mg/kg, po (reference value: -5.5%). It counts as functional.
The test system of experiment [6] is Rattus norvegicus. The experiment in a line: Anticonvulsant activity in amygdala kindling rat model assessed as change in after discharge duration at 300 mg/kg, po (reference value: -5.5%). It counts as functional.
Experiment [7] relates to Rattus norvegicus. Put plainly: Anticonvulsant activity in amygdala kindling rat model assessed as change in after discharge threshold at 300 mg/kg, po relative to control. It counts as functional.
For experiment [8], the system named is Rattus norvegicus. Put plainly: Anticonvulsant activity in amygdala kindling rat model assessed as change in after discharge threshold at 600 mg/kg, po relative to control. The class given is functional.
Experiment [9] has as its system Mus musculus. Put plainly: Anticonvulsant activity in po dosed maximal electroshock induced seizure mouse model assessed as reduction in convulsions. The class given is functional.
The test system of experiment [10] is Rattus norvegicus. Put plainly: Anticonvulsant activity in amygdala kindling rat model assessed as change in after discharge duration at 30 mg/kg, po (reference value: -5.5%). It counts as functional.
Experiment [11] relates to Rattus norvegicus. The experiment in a line: Anticonvulsant activity in amygdala kindling rat model assessed as change in after discharge duration at 100 mg/kg, po (reference value: -5.5%). The class given is functional.
Experiment [12] has as its system Rattus norvegicus. Put plainly: Anticonvulsant activity in amygdala kindling rat model assessed as change in after discharge threshold at 30 mg/kg, po relative to control. The class given is functional.
In experiment [13] the test system is Rattus norvegicus. Put plainly: Anticonvulsant activity in amygdala kindling rat model assessed as change in after discharge threshold at 100 mg/kg, po relative to control. The class given is functional.
The subject of experiment [14] is Mus musculus. The experiment in a line: Anticonvulsant activity in po dosed subcutaneous pentylenetetrazole-induced seizure mouse model assessed as reduction in convulsions. The class given is functional.
Experiment [15] deals with Mus musculus. Put plainly: Anticonvulsant activity in ip dosed subcutaneous pentylenetetrazole-induced seizure mouse model assessed no observable episode of clonic seizure. The class given is functional.
Experiment [16] has as its system Mus musculus. Put plainly: Anticonvulsant activity in ip dosed maximal electroshock induced seizure mouse model assessed as suppression in hindlimb tonic extension. It counts as functional. (In the maximal electroshock model the usual endpoint is tonic extension of the hind limbs.)
The subject of experiment [17] is Mus musculus. The experiment in a line: Anticonvulsant activity in maximal electroshock induced seizure mouse model assessed as reduction in convulsions at 50 mg/kg, po. It counts as functional, organism-based.
Experiment [18] concerns Mus musculus. Put plainly: Therapeutic index, ratio of TD50 for neurotoxicity in po dosed mouse to ED50 for po dosed maximal electroshock induced seizure mouse model.
The subject of experiment [19] is Mus musculus. Put plainly: Therapeutic index, ratio of TD50 for neurotoxicity in po dosed mouse to ED50 for po dosed 6-Hz induced seizure mouse model.
In experiment [20] the test system is Mus musculus. The experiment in a line: Anticonvulsant activity in subcutaneous pentylenetetrazole-induced seizure mouse model assessed as reduction in convulsions at 50 mg/kg, po. It counts as functional, organism-based.
Experiment [21] relates to Mus musculus. Put plainly: Anticonvulsant activity in maximal electroshock induced seizure mouse model assessed as reduction in convulsions at 25 mg/kg, po. It counts as functional, organism-based.
The test system of experiment [22] is Mus musculus. Put plainly: Anticonvulsant activity in subcutaneous pentylenetetrazole-induced seizure mouse model assessed as reduction in convulsions at 25 mg/kg, po. It counts as functional, organism-based.

On to `CS(=O)(=O)c1ccccc1-c1ccccc1F`, for which the outcome in [1] was Active.
As to `CNS(=O)(=O)c1ccccc1-c1ccccc1OC`, the result in experiment [2] and in [1] was inactive.
Take `CCCNS(=O)(=O)c1ccccc1-c1ccccc1`: in [1], the result was Active.
`CNS(=O)(=O)c1ccccc1-c1cccc(OC)c1`: in experiment [1], the result was inactive.
With `CCCC(CCC)C(=O)[O-].[Na+]` [VALPROATE SODIUM], in experiment [3], the TD50 came to 396 mg/kg. In addition, the ED50 in experiment [4] came to 394 mg/kg; in [9], 337 mg/kg. Also, the Activity in experiment [5] is recorded as -22.5%; in experiment [6], 11.1%; in experiment [7] it was -5.4%; in experiment [8], 81.3%.
As for `CN(C)S(=O)(=O)c1ccccc1-c1cccs1`, the result in [2] and in [1] was inactive.
As to `NS(=O)(=O)Cc1noc2ccccc12` [ZONISAMIDE], the Activity was 7% in [10], -37.6% in [11], 5.1% in experiment [12] and 45.9% in experiment [13]. Moreover, the values for the ED50 in [14] and in [9] were over 500 mg/kg and 20 mg/kg, respectively.
Consider `CNS(=O)(=O)c1ccccc1-c1ccc(OC)cc1`, for which the outcome in [2] and in experiment [1] was inactive.
`CC1(C)O[C@@H]2[C@@H](CO[C@@]3(COS(N)(=O)=O)OC(C)(C)O[C@@H]23)O1` [TOPIRAMATE]: the ED50 was over 800 mg/kg in experiment [15] and 33 mg/kg in experiment [16].
Turning to `CCS(=O)(=O)c1ccccc1-c1ccccc1`, in experiment [2], the result was Active. Moreover, in experiment [1], the result was inactive.
Turning to `CNS(=O)(=O)c1ccccc1-c1ccc(F)cc1`, the result in experiment [2] was inactive. Besides, the result in experiment [1] and in [17] was Active.
Turning to `CNS(=O)(=O)c1ccccc1-c1ccccc1F`, the figures for the “Ratio TD50/ED50” value in [18] and in [19] were 6.7 and 2, respectively. In experiment [3], the TD50 worked out at 107 mg/kg. For the same molecule, the values for the ED50 in experiment [4] and in experiment [9] were 53 mg/kg and 16 mg/kg, respectively. The Activity was -1.4% in experiment [11] and 352.5% in [13]. In addition, the result in experiment [20], in experiment [21], in [2], in experiment [1] and in [17] was Active.
Consider `CNS(=O)(=O)c1ccccc1-c1cccc(Cl)c1`, for which the outcome in experiment [21] was inactive. Further, the outcome in experiment [1] was Active.
As for `CN(C)S(=O)(=O)c1ccccc1-c1ccoc1`, in [1], the outcome was inactive.
As to `O=S(=O)(c1ccccc1-c1ccccc1)C(F)(F)F`, the outcome in [2] and in experiment [1] was inactive.
For the molecule `CNS(=O)(=O)c1ccccc1-c1cccc(F)c1`, in experiment [21], the outcome was inactive. For the same molecule, the result in experiment [1] was Active.
In the case of `CNS(=O)(=O)c1ccccc1-c1ccc(Cl)cc1`, in [21], the result was inactive. In addition, in experiment [1], the outcome was Active.
Consider `CN(C)S(=O)(=O)c1cccc(Cl)c1`, for which the outcome in [17] was Active.
Regarding `CN(C)S(=O)(=O)c1ccccc1-c1ccccn1`, in experiment [2], the outcome was inactive.
Still for that read-out and setting: as for `CN(C)S(=O)(=O)c1ccccc1-c1cccnc1`, the entry is “inactive”.
As to `CN(C)S(=O)(=O)c1ccccc1-c1ccccc1`, the result in [20] and in experiment [17] was inactive.
In the case of `CN(C)S(=O)(=O)c1ccccc1-c1ccncc1`, the result in experiment [1] was inactive.
Take `NS(=O)(=O)c1ccccc1-c1ccccc1`: the outcome in experiment [1] and in experiment [17] was Active.
`CNS(=O)(=O)c1ccccc1-c1ccccc1Cl`: the outcome in experiment [1] and in experiment [17] was Active.
For `CNS(=O)(=O)c1ccccc1-c1ccccc1`, the outcome in experiment [20] was inactive. Further, the outcome in [1] and in [17] was Active.
On to `CCNS(=O)(=O)c1ccccc1-c1ccccc1`, for which the outcome in [22] and in [21] was inactive. In addition, the result in experiment [1] and in experiment [17] was Active.
For `CN(C)S(=O)(=O)c1ccccc1-c1ccco1`, the outcome in experiment [1] was inactive.

Broadly, the TD50 is the dose at which the toxic effect under study appears in half of the subjects. High values mean lower toxicity, low ones greater toxicity. Usually ED50 stands for the dose at which the effect has come halfway, by size or by number of responders.
